The text below walks through data of patent publication EP4644383A1 (Jiangsu Yahong Meditech Co., Ltd., priority 2022, dated 2024).

In the first test the target is T1, FGFR3 (Homo sapiens, UniProt P22607).
T1 construct: FGFR3's cytoplasmic domain [436-806 (terminal) amino acids]; purchased Carna 08-135
T1 sequence (P22607 436-806): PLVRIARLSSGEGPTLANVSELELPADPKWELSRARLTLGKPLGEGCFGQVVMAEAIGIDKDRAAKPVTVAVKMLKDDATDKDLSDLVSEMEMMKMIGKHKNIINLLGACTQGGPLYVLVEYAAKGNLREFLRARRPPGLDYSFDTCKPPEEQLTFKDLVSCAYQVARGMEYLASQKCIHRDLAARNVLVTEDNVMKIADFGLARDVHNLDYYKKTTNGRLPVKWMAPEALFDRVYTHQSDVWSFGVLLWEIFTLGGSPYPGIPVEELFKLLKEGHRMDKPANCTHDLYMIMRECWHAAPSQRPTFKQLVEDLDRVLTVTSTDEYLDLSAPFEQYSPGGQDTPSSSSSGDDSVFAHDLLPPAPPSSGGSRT
Briefly: FGFR3 kinase activity inhibition assay (LanthaScreen TR-FRET). Format: biochemical.
Conditions: not given
The procedure: PV3552) and 10 mM EDTA were added to quench the kinase reaction, and incubated at 22°C for 60 minutes. • ⑤ The reaction was measured using a PerkinElmer EnVision multimode plate reader through TR-FRET dual wavelength detection. • 1. The RFU values were copied from the Envision program. • 2. The ratio of RFU 520nm/RFU 495nm was calculated. • 3. The value of the ratio was converted to a percentage inhibition value. % Inhibition = (max-data)/(max-min) × 100 [formula] "Min" represents the ratio of the control without enzyme, "max" represents the ratio of the DMSO control, and "data" represents the ratio of the compounds in wells with different concentrations. […] "Top" refers to the maximum response, "Bottom" refers to the minimum response, and "HillSlope" refers to the slope of the curve. According to the same method as that in the FGFR1 kinase activity inhibition assay, the inhibitory activities against FGFR2, FGFR3 and FGFR4 were tested using FGFR2's cytoplasmic domain [399-821 (terminal) amino acids] (Carna: 08-134), FGFR3's cytoplasmic domain [436-806 (terminal) amino acids] (Carna: 08-135) and FGFR4's cytoplasmic domain [460-802 (terminal) amino acids] (Carna: 08-136), respectively. […]
For orientation: TR-FRET usually uses a lanthanide donor and a delayed reading to cut background.
Take `C[C@@H](Oc1ccc2[nH]nc(-c3ccc(N4CCOCC4)nc3)c2n1)c1c(Cl)cncc1Cl` [Example 33, (R)-4-(5-(5-(1-(3,5-dichloropyridin-4-yl)ethoxy)-1H-pyrazolo[4,3-b]pyridin-3-yl)pyridin-2-yl)morpholine]: the IC50 (commonly the midpoint of a concentration-inhibition curve) was in the range of 10 to 100 nM. `C[C@@H](Oc1ccc2[nH]nc(-c3cnn(CC(C)(C)O)c3)c2n1)c1c(Cl)cncc1Cl` [Example 38, (R)-1-(4-(5-(1-(3,5-dichloropyridin-4-yl)ethoxy)-1H-pyrazolo[4,3-b]pyridin-3-yl)-1H-pyrazol-1-yl)-2-methylpropan-2-ol] came in with an IC50 of 10 to 100 nM.

The test is the same for the next values; noted with them: FGFR3 kinase, TR-FRET; read-out: IC50 (nM) FGFR3.
Regarding `CC(C)c1cc(O[C@H](C)c2c(Cl)cncc2Cl)cc2c(-c3cnn(C)c3)n[nH]c12` [Example 6, (R)-5-(1-(3,5-dichloropyridin-4-yl)ethoxy)-7-isopropyl-3-(1-methyl-1H-pyrazol-4-yl)-1H-indazole], the IC50 was > 100 nM. On to `Cc1c[nH]c(-c2n[nH]c3c(C)cc(O[C@H](C)c4c(Cl)cncc4Cl)cc23)n1` [Example 9, (R)-5-(1-(3,5-dichloropyridin-4-yl)ethoxy)-7-methyl-3-(4-methyl-1H-imidazol-2-yl)-1H-indazole], for which the IC50 was > 100 nM. In the case of `C[C@@H](Oc1ccc2[nH]nc(-c3cnn4ccccc34)c2n1)c1c(Cl)cncc1Cl` [Example 43, (R)-5-(1-(3,5-dichloropyridin-4-yl)ethoxy)-3-(pyrazolo[1,5-a]pyridin-3-yl)-1H-pyrazolo[4,3-b]pyridine], the IC50 was > 100 nM.

For `C[C@@H](Oc1ccc2[nH]nc(-c3cnn4c3CCCC4)c2n1)c1c(Cl)cncc1Cl` [Example 44, (R)-5-(1-(3,5-dichloropyridin-4-yl)ethoxy)-3-(4,5,6,7-tetrahydropyrazolo[1,5-a]pyridin-3-yl)-1H-pyrazolo[4,3-b]pyridine], the IC50 was > 100 nM. On the same count and under the same terms, the figure for `CC(C)n1cc(-c2n[nH]c3ccc(O[C@H](C)c4c(Cl)cncc4Cl)nc23)cn1` [Example 47, (R)-5-(1-(3,5-dichloropyridin-4-yl)ethoxy)-3-(1-isopropyl-1H-pyrazol-4-yl)-1H-pyrazolo[4,3-b]pyridine] is 10 to 100 nM; for `CC(C)Cn1cc(-c2n[nH]c3ccc(O[C@H](C)c4c(Cl)cncc4Cl)nc23)cn1` [Example 51, (R)-5-(1-(3,5-dichloropyridin-4-yl)ethoxy)-3-(1-isobutyl-1H-pyrazol-4-yl)-1H-pyrazolo[4,3-b]pyridine] it is > 100 nM.

In the case of `Cn1cc(-c2n[nH]c3ccc(C(=O)NCC(C)(C)O)cc23)cn1` [Example 67, N-(2-hydroxy-2-methylpropyl)-3-(1-methyl-1H-pyrazol-4-yl)-1H-indazole-5-carboxamide], the IC50 is > 100 nM. Still for that read-out and setting: the value for `Cn1cc(-c2n[nH]c3ccc(C(=O)NCC4CNC4)cc23)cn1` [Example 68, N-(azetidin-3-ylmethyl)-3-(1-methyl-1H-pyrazol-4-yl)-1H-indazole-5-carboxamide] was > 100 nM; that for `Cn1cc(-c2n[nH]c3ccc(C(=O)NCC4CCCNC4)cc23)cn1` (centres unmarked) [Example 69, 3-(1-methyl-1H-pyrazol-4-yl)-N-(piperidin-3-ylmethyl)-1H-indazole-5-carboxamide] was > 100 nM; that for `CNCCNC(=O)c1cc(F)c2[nH]nc(-c3cnn(CCN4CCOCC4)c3)c2c1` [Example 70, 7-fluoro-N-(2-(methylamino)ethyl)-3-(1-(2-morpholinoethyl)-1H-pyrazol-4-yl)-1H-indazole-5-carboxamide] was > 100 nM.

For the molecule `CNCCNC(=O)c1cc2c(-c3cnn(C)c3)n[nH]c2cc1-c1cc(OC)cc(OC)c1` [Example 71, 6-(3,5-dimethoxyphenyl)-3-(1-methyl-1H-pyrazol-4-yl)-N-(2-(methylamino)ethyl) -1H-indazole-5-carboxamide], the IC50 was > 100 nM.

For `CNCCNC(=O)c1cc2c(-c3cnn(C)c3)n[nH]c2cc1OC` [Example 72, 6-methoxy-3-(1-methyl-1H-pyrazol-4-yl)-N-(2-(methylamino)ethyl)-1H-indazole-5-carboxamide], the IC50 is > 100 nM. With `CNCCNC(=O)c1cc2c(-c3cnn(C)c3)n[nH]c2cc1F` [Example 73], the IC50 is > 100 nM.

Consider `CNCCn1cc(-c2ccc3[nH]nc(-c4nc(C)c[nH]4)c3c2)nn1` [Example 75, N-methyl-2-(4-(3-(4-methyl-1H-imidazol-2-yl)-1H-indazol-5-yl)-1H-1,2,3-triazol-1-yl)ethan-1-amine], for which the IC50 was > 100 nM. As for `Cc1cccc(C)c1NC(=O)c1ccc2[nH]nc(-c3cnn(C)c3)c2c1` [Example 77, N-(2,6-dimethylphenyl)-3-(1-methyl-1H-pyrazol-4-yl)-1H-indazole-5-carboxamide], the IC50 is > 100 nM. In the case of `Cn1cc(-c2n[nH]c3ccc(C(=O)NCc4c(Cl)cncc4Cl)cc23)cn1` [Example 78, N-((3,5-dichloropyridin-4-yl)methyl)-3-(1-methyl-1H-pyrazol-4-yl)-1H-indazole-5-carboxamide], the IC50 was > 100 nM. The same measure, in the same setting: the figure for `Cc1c[nH]c(-c2n[nH]c3ccc(C(=O)NCC4CCNC4)cc23)n1` (centres unmarked) [Example 79, 3-(4-methyl-1H-imidazol-2-yl)-N-(pyrrolidin-3-ylmethyl)-1H-indazole-5-carboxamide] is > 100 nM. `Cc1c[nH]c(-c2n[nH]c3ccc(C(=O)NCc4ncc[nH]4)cc23)n1` [Example 81]: the IC50 was > 100 nM. Same read-out and setting: the value for `CNCCNC(=O)c1ccc2[nH]nc(-c3nc(-c4ccccc4)c[nH]3)c2c1` [Example 82, N-(2-(methylamino)ethyl)-3-(4-phenyl-1H-imidazol-2-yl)-1H-indazole-5-carboxamide] was > 100 nM; that for `CNCCNC(=O)c1ccc2[nH]nc(-c3nc4c([nH]3)CN(C)C4)c2c1` [Example 83, 3-(5-methyl-1,4,5,6-tetrahydropyrrolo[3,4-d]imidazol-2-yl)-N-(2-(methylamino)ethyl)-1H-indazole-5-carboxamide] was > 100 nM. Still for that read-out and setting: the value for `CNCCNC(=O)c1ccc2[nH]nc(-c3nc4cc(N5CCN(C)CC5)ccc4[nH]3)c2c1` [Example 84, N-(2-(methylamino)ethyl)-3-(5-(4-methylpiperazin-1-yl)-1H-benzo[d]imidazol-2-yl)-1H-indazole-5-carboxamide] was > 100 nM. Still for that read-out and setting: the figure for `CC(Oc1ccc2[nH]nc(-c3cnn(C)c3)c2c1)C1CCOCC1` (centres unmarked) [Example 86, 3-(1-methyl-1H-pyrazol-4-yl)-5-(1-(tetrahydro-2H-pyran-4-yl)ethoxy)-1H-indazole] is > 100 nM; for `CC(Oc1ccc2[nH]nc(-c3cnn(C)c3)c2c1)c1ccn2ccnc2c1` (centres unmarked) [Example 89, 5-(1-(imidazo[1,2-a]pyridine-7-yl)ethoxy)-3-(1-methyl-1H-pyrazol-4-yl)-1H-indazole] it is > 100 nM; for `Cn1cc(-c2n[nH]c3ccc(OC4CCCc5cnccc54)cc23)cn1` (centres unmarked) [Example 90, 5-((3-(1-methyl-1H-pyrazol-4-yl)-1H-indazol-5-yl)oxy)-5,6,7,8-tetrahydroisoquin oline] it is > 100 nM. As to `CC(Oc1ccc2[nH]nc(-c3cnn(C)c3)c2c1)c1nccs1` (centres unmarked) [Example 91, 2-(1-((3-(1-methyl-1H-pyrazol-4-yl)-1H-indazol-5-yl)oxy)ethyl)thiazole], the IC50 is 10 to 100 nM. Regarding `CC(Oc1ccc2[nH]nc(-c3cnn(C)c3)c2c1)c1ccnc2ncccc12` (centres unmarked) [Example 93, 4-(1-((3-(1-methyl-1H-pyrazol-4-yl)-1H-indazol-5-yl)oxy)ethyl)-1,8-naphthyridine], the IC50 is 10 to 100 nM. Still for that read-out and setting: the value for `CC(Oc1ccc2[nH]nc(-c3cnn(C)c3)c2c1)c1cccc2c1OCCO2` (centres unmarked) [Example 97, 5-(1-(2,3-dihydrobenzo[b][1,4]dioxan-5-yl)ethoxy)-3-(1-methyl-1H-pyrazol-4-yl)-1H-indazole] was > 100 nM; that for `CC(Oc1ccc2[nH]nc(-c3cnn(C)c3)c2c1)c1c(F)ccc2ncccc12` (centres unmarked) [Example 102, 6-fluoro-5-(1-((3-(1-methyl-1H-pyrazol-4-yl)-1H-indazol-5-yl)oxy)ethyl)qu inoline] was 1 to 10 nM; that for `CC(Oc1ccc2[nH]nc(-c3cnn(C)c3)c2c1)c1cccc2ncn(C)c12` (centres unmarked) [Example 103, 5-(1-(1-methyl-1H-benzo[d]imidazol-7-yl)ethoxy)-3-(1-methyl-1-H-pyrazol-4-yl)-1H-indazole] was 1 to 10 nM. Turning to `CC(Oc1ccc2[nH]nc(-c3cnn(C)c3)c2c1)c1cccc2cnccc12` (centres unmarked) [Example 104, 5-(1-((3-(1-methyl-1H-pyrazol-4-yl)-1H-indazol-5-yl)oxy)ethyl)isoq uinoline], the IC50 fell in the range of 1 to 10 nM. Still for that read-out and setting: the figure for `CC(Oc1ccc2[nH]nc(-c3cnn(C)c3)c2c1)c1cccc2cccnc12` (centres unmarked) [Example 105, 8-(1-((3-(1-methyl-1H-pyrazol-4-yl)-1H-indazol-5-yl)oxy)ethyl)quin oline] is 10 to 100 nM; for `CC(Oc1ccc2[nH]nc(-c3cnn(C)c3)c2c1)c1cccc2occc12` (centres unmarked) [Example 106, 5-(1-(benzofuran-4-yl)ethoxy)-3-(1-methyl-1H-pyrazol-4-yl)-1H-indazole] it is 10 to 100 nM.

Staying with this test, now noted: read-out: IC50 (nM) FGFR3; FGFR3 kinase, TR-FRET.
Turning to `CNCCN(C)C(=O)c1ccc2[nH]nc(-c3cnn(C)c3)c2c1` [Example 66, N-methyl-3-(1-methyl-1H-pyrazol-4-yl)-N-(2-(methylamino)ethyl) -1H-indazole-5-carboxamide], the IC50 is > 100 nM.
